Measurements as given in paper PMC6466579, “Non-Mammalian Prdx6 Enzymes (Proteins with 1-Cys Prdx Mechanism) Display PLA2 Activity Similar to the Human Orthologue” (Antioxidants, 2019).

Tests used:
[1] = biological target: T1, AfPrxC (Aspergillus fumigatus, UniProt B0Y9D7); assay: PLA2 assay, [3H]DPPC liposomes, TLC and scintillation; type: biochemical
T1 construct: gene AFUB_080670
T1 sequence (B0Y9D7 47-267): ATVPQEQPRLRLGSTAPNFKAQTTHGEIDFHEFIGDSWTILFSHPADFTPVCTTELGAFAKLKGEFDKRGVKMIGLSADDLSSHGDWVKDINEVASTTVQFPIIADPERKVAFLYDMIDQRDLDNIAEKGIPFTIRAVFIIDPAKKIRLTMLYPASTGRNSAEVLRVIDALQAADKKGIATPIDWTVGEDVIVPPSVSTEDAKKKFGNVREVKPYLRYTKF

[2] = biological target: T2, AfPrx1 (Aspergillus fumigatus, UniProt Q4WPA3); assay: as above; type: biochemical
T2 construct: gene AFUA_4G08580; cytosolic 1-Cys Prdx
T2 sequence (Q4WPA3 1-213): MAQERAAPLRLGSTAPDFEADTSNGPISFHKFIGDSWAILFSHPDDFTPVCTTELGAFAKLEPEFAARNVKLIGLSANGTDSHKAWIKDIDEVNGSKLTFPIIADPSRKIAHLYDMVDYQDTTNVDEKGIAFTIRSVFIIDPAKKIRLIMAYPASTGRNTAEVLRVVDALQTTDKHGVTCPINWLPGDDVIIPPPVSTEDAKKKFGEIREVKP

SMILES: CCCCCCCCCCCCCCCCOC[C@H](COCC(F)(F)F)OP(=O)(O)OC [MJ33, 1-hexadecyl-3-trifluoro-ethylglycero-sn-2-phosphomethanol]
- inhibition at 200 µM [1]: ~85%
- inhibition at 200 µM [2]: ~85%
